One test deals with T1, RAMP2-CLR (AM1 receptor) (Homo sapiens, UniProt O60895+Q16602).
T1 construct: FLAG; expressed in transfected cells; host or cells: HEK-293 or HEK-293S cells, transient transfection, 1:1 RAMP:CLR
The test can be described thus: cAMP accumulation, HEK-293S cells, RAMP2 + CLR. The note with it: HEK293S, untreated, percentage of maximal cAMP with 100 μM forskolin in presence of PTX, mean ± S.E., n = 5. Type of test: cell-based. As to the method: HEK-293 cells were transfected with FuGENE 6 (Roche Applied Science) in accordance with the manufacturer's instructions using a 1:3 (w:v) DNA:FuGENE ratio and a 1:1 ratio of RAMP to CLR. […] The transfected cell lines were grown for 24–48 h prior to assaying.
The transfected HEK-293 cells were washed in PBS, resuspended in stimulation buffer (PBS containing 0.1% BSA and 0.5 mM IBMX), and seeded at 2000 cells/well in 384-well white Optiplates. Ligands were added in the range of 1 pM to 1 mM, and cAMP accumulation was measured after 30 min of stimulation using a LANCE® cAMP detection kit (PerkinElmer Life Sciences). […] Plates were read using a Mithras LB 940 multimode microplate reader (Berthold Technologies). […] Values were converted to concentration using a cAMP standard curve performed in parallel.
Data analysis for cAMP assays was performed in GraphPad Prism 6.0f (San Diego, CA). […] These values were then used to quantify signaling bias as change in log (τ/Ka) relative to the natural cognate ligand for the respective receptor ([41]). […] Statistical differences were analyzed using one-way ANOVA or Student's t test as appropriate with post hoc Bonferroni's or Dunnett's multiple comparisons, and p < 0.05 was considered significant. […] To quantitate the ligand-dependent response in the yeast system, a strain lacking GPA1 (MMY11), grown in rich medium, was used as a standard ([72]). […]
For orientation: Cyclic AMP is a second messenger, typically raised through Gs and lowered through Gi signalling.

For test [1], the target named is T2, RAMP1-CLR (CGRP receptor) (Homo sapiens, UniProt O60894+Q16602).
T2 construct: FLAG; expressed in transfected cells; host or cells: HEK-293 or HEK-293S cells, transient transfection, 1:1 RAMP:CLR
As to the kind of experiment: S. cerevisiae growth assay, GPA1/Gαq chimera, RAMP1 + CLR. Type of test: cell-based. The settings on record: percentage of yeast strain MMY11 (lacking GPA1); 24-h; mean ± S.E., n = 7. The procedure:
FIGURE 7. […] Reporter gene activity was determined following 24-h stimulation. All data are expressed as percentage of the maximum response observed in yeast strain MMY11 and are means ± S.E. of n individual data sets. D, Bar chart showing the efficacy of each ligand for each RAMP-CLR combination at the Gαq chimera determined via application of the operational model of receptor agonism (Ref. [34] and Table 1). Data were determined as statistically different from the cognate ligand for each receptor (***, p < 0.001; ****, p < 0.0001) using one-way ANOVA with Bonferroni's post-test. E, signaling bias plots were calculated as ΔΔ(τ/Ka) values on a logarithmic scale for each ligand and for each chimera G protein for the three individual RAMP-CLR complexes.
General yeast procedures were performed as described previously ([22], [24]). […] Receptor signaling was measured using the yeast growth assay as described previously ([24]). […] A fluorescein signal was detected as an increase in fluorescence (excitation wavelength = 485 nm, emission wavelength = 535 nm) as a measure of growth. Different concentrations of ligand (0.01 nM–100 μM) were assayed using 96-well plates, and fluorescence was detected using a Tecan Infinite M200 microplate reader (Tecan Ultra Evolution, Reading, UK) or a Mithras LB 940 microplate reader (Berthold Technologies, Harpenden, UK) for 20 h. […]

T2 sequence (Q16602 23-461): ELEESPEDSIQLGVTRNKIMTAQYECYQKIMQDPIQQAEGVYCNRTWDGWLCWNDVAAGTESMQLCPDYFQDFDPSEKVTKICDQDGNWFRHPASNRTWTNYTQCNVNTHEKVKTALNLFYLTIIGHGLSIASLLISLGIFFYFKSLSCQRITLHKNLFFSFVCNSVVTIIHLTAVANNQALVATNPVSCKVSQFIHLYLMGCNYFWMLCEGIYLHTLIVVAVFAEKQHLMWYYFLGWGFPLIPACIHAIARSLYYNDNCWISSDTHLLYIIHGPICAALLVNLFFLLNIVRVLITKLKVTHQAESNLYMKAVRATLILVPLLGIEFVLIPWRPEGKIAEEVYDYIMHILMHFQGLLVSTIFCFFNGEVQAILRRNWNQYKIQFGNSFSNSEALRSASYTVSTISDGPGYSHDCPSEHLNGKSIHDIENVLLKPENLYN
T2 sequence (O60894 27-148): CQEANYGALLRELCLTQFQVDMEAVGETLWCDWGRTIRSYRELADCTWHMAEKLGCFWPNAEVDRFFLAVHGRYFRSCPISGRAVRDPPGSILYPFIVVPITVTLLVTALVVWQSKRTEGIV
T1 sequence (Q16602 23-461): as the sequence (Q16602 23-461) above
T1 sequence (O60895 43-175): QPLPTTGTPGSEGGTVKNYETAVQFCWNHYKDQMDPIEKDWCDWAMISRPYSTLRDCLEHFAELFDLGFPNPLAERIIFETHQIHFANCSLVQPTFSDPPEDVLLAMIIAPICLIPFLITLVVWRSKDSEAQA

As to `CSCC[C@H](NC(=O)[C@H](CC(C)C)NC(=O)[C@H](CCC(N)=O)NC(=O)[C@H](Cc1c[nH]c2ccccc12)NC(=O)[C@H](CC(C)C)NC(=O)[C@H](CCCNC(=N)N)NC(=O)[C@H](Cc1c[nH]cn1)NC(=O)[C@H](CO)NC(=O)[C@H](CC(C)C)NC(=O)[C@H](CC(N)=O)NC(=O)[C@H](CCC(N)=O)NC(=O)[C@@H](NC(=O)[C@H](CCC(N)=O)NC(=O)[C@@H]1CSSC[C@H](NC(=O)CNC(=O)[C@@H](NC(=O)[C@H](CCCNC(=N)N)NC(=O)[C@H](CC(C)C)NC(=O)[C@H](CC(C)C)NC(=O)[C@H](CCC(N)=O)NC(=O)[C@H](C)NC(=O)[C@H](CCC(N)=O)NC(=O)[C@@H](N)[C@@H](C)O)C(C)C)C(=O)N[C@@H](C(C)C)C(=O)N[C@@H](CC(C)C)C(=O)NCC(=O)N[C@@H]([C@@H](C)O)C(=O)N1)C(C)C)C(=O)NCC(=O)N1CCC[C@H]1C(=O)N[C@@H](C)C(=O)NCC(=O)N[C@@H](CCCNC(=N)N)C(=O)N[C@@H](CCC(N)=O)C(=O)N[C@@H](CC(=O)O)C(=O)N[C@@H](CO)C(=O)N[C@@H](C)C(=O)N1CCC[C@H]1C(=O)N[C@H](C(=O)N[C@@H](CC(=O)O)C(=O)N1CCC[C@H]1C(=O)N[C@@H](CO)C(=O)N[C@@H](CO)C(=O)N1CCC[C@H]1C(=O)N[C@@H](Cc1c[nH]cn1)C(=O)N[C@@H](CO)C(=O)N[C@@H](Cc1ccc(O)cc1)C(N)=O)C(C)C` [AM2, adrenomedullin 2], the Emax on RAMP2-CLR (AM1 receptor) was determined as 40.3 ± 1.5%.
`CC[C@H](C)[C@H](NC(=O)[C@H](CCC(N)=O)NC(=O)[C@H](Cc1c[nH]cn1)NC(=O)[C@H](C)NC(=O)[C@H](CC(C)C)NC(=O)[C@H](CCCCN)NC(=O)[C@H](CCC(N)=O)NC(=O)[C@@H](NC(=O)[C@@H](NC(=O)[C@@H]1CSSC[C@H](NC(=O)CNC(=O)[C@H](Cc2ccccc2)NC(=O)[C@H](CO)NC(=O)[C@H](CCCNC(=N)N)NC(=O)[C@H](CC(C)C)NC(=O)CNC(=O)[C@H](CCC(N)=O)NC(=O)[C@H](Cc2ccccc2)NC(=O)[C@H](CC(N)=O)NC(=O)[C@H](CC(N)=O)NC(=O)[C@H](CCSC)NC(=O)[C@H](CO)NC(=O)[C@H](CCC(N)=O)NC(=O)[C@H](CCCNC(=N)N)NC(=O)[C@@H](N)Cc2ccc(O)cc2)C(=O)N[C@@H](CCCNC(=N)N)C(=O)N[C@@H](Cc2ccccc2)C(=O)NCC(=O)N[C@@H]([C@@H](C)O)C(=O)N1)[C@@H](C)O)C(C)C)C(=O)N[C@@H](Cc1ccc(O)cc1)C(=O)N[C@@H](CCC(N)=O)C(=O)N[C@@H](Cc1ccccc1)C(=O)N[C@H](C(=O)N[C@@H](CC(=O)O)C(=O)N[C@@H](CCCCN)C(=O)N[C@@H](CC(=O)O)C(=O)N[C@@H](CCCCN)C(=O)N[C@@H](CC(=O)O)C(=O)N[C@@H](CC(N)=O)C(=O)N[C@H](C(=O)N[C@@H](C)C(=O)N1CCC[C@H]1C(=O)N[C@@H](CCCNC(=N)N)C(=O)N[C@@H](CO)C(=O)N[C@@H](CCCCN)C(=O)N[C@H](C(=O)N[C@@H](CO)C(=O)N1CCC[C@H]1C(=O)N[C@@H](CCC(N)=O)C(=O)NCC(=O)N[C@@H](Cc1ccc(O)cc1)C(N)=O)[C@@H](C)CC)C(C)C)[C@@H](C)O` [AM, adrenomedullin]: the Emax in test [1] amounted to 14.1 ± 1.2%.

For the origin of these results see paper PMC5063977 (The Journal of Biological Chemistry, 2016).
